Experimental data taken from US20040038950A1, “Pharmaceutical composition for treating IL-1 related diseases or disorders” (priority 2002, published 2004).

Assays:
MMP-1 mRNA = experiment: RT-PCR of MMP-1 mRNA in chondrocytes; format: cell-based, human; conditions: 100 μM
Procedure: Chondrocytes were isolated from the knee joint of patient undergoing a knee replacement due to osteoarthritis. Cartilage was digested with 0.2% protease Type XIV (Sigma) for 1 hour, followed by 3-hour incubation with 0.2% collagenase Type IA (Sigma) at 37° C. Following the incubation, the undigested cartilage fragments were removed using a 70 μm Nylon sieve. Chondrocytes were washed with DPBS and maintained in monolayer culture for 7 days in Dulbecco's modified Eagle's medium (DMEM; Life Technologies Inc.) which contained 10% fetal bovine serum (FBS; Life Technologies), 100 units/ml penicillin-streptomycin (Life Technologies) and 25 μg/ml L-ascorbic acid (Sigma). All experiments were performed with primary or first passage cells. The preparation of chondrocytes in alginate beads was carried out with 4×10^6 cells per 1 ml of alginate. Alginate cultures were maintained for 7 days at 37° C., 5% CO2 and 95% humidity and incubated with various concentrations of DHEA (0, 10, 50 or 100 μM) for a varing period of time. DHEA was purchased from Sigma and used after dissolving either in ethanol or dimethyl sulfoxide (DMSO). After a desired incubation period, cells were harvested by solubilizing the alginate beads in citrate buffer (55 mM sodium citrate, 0.15 M NaCl, pH 7.0) for 10 min at 37° C. and by centrifugation (300 g, 5 min).
(§1) Total RNA from chondrocytes was extracted using RNeasy Mini Kit (QIAGEN). Reverse transcription from 1 μg of total RNA was conducted using First Strand cDNA Synthesis Kit (MBI Fermentas) according to manufacturer's recommendation with random hexamers. The resulting cDNA was then amplified by polymerase chain reaction using AccuPower PCR Premix (Bioneer, Korea) in a final volume of 20 μl using three thermocycler temperatures (30 sec at […], 30 sec at 60° C., and 30 sec at […]). All reactions were determined to be in the linear range of amplification with the cycle number ranging from 14 to 30. The PCR products were analyzed by separation on a 2% agarose gel followed by ethidium bromide staining. Following electrophoresis, photographs were taken and analyzed using a densitometric program (TINA; Raytest Isotopenmeβgerate, Germany). Integrated density values for the genes in question were then normalized to the glyceraldehyde-3-phosphate dehydrogenase (GAPDH) values for a semiquantitative assessment. After normalizing with respect to GAPDH, percentage increase or decrease was determined. Each experiment was repeated at least three times. […]

[1] = system: (IL-1β)-induced MMP-1 mRNA; experiment: (IL-1β)-induced MMP-1 mRNA expression in chondrocytes, RT-PCR; format: cell-based, human; conditions: 72 hr
Procedure: (§2) Sixteen hours prior to a treatment, the complete culture medium was replaced with a serum-free medium. Chondrocyte alginate bead cultures were then treated with IL-1β ([…], (Calbiochem) and DHEA (0, 10, 50 or 100 μM) for 3 days.
as §1

[2] = system: (IL-1β)-induced IL-6 gene expression; experiment: (IL-1β)-induced IL-6 gene expression in chondrocytes; format: cell-based, human; conditions: 10, 50, 100 μM with IL-1β, 72 hr
Procedure: as §2, §1

MMP-3 expression = experiment: Osteoarthritic rabbit model (ACLT), intraarticular injection, RT-PCR of MMP-3; format: in vivo; conditions: rabbit ACLT knee, intraarticular once a week for 5 weeks
Procedure: Mature New Zealand White rabbits underwent bilateral anterior cruciate ligament transection (ACLT). ACLT was performed using a medial arthrotomy method. Postoperatively the animals were permitted cage (60 cm×60 cm×40 cm) activity without immobilization. The right knees received via intraartiticular injection DHEA, DHEA-pyruvate or DHEA+HA, 4 weeks after ACLT and once a week for 5 weeks. The left knees received 0.3 ml of intraarticular injection with control solution (carrier solution). After 9 weeks from ACLT, the animas were sacrificed.
Synovium (entire tissue) around the infrapatellar fat pads and cartilage tissue from the femoral condyle and the tibial plateau were harvested. The subsequent experimental procedure was the same as described in Test Example IV.

[3] = system: patients diagnosed to have degenerative arthritis; experiment: Topical application of DHEA to arthritic patient; format: in vivo, human; conditions: for resting pain score: before 14.34; for joint effusion score: before 2.12; for medial joint line tenderness score: before 2.18; for motion pain score: before 8.11; for pain at ascending/descending stairs score: before 10.87
Procedure: Ten patients diagnosed to have degenerative arthritis were tested to investigate the therapeutic effect of DHEA in topical application. Testees had the symptoms including dolor of knee joint (resting or motion pain), swelling, deformation, tenderness, crepitation or stiffness of joint. Patients who had received intraarticular injection, steroid treatment or surgery within 1 month before this test were excluded, as well as those who had severe cardiac or liver diseases, kidney failure, gastrointestinal diseases, or poor systemic condition such as anomalotrophy. Besides, women who were pregnant or breast-feeding babies were excluded in this study.
The volunteers were randomly grouped into Group I and Group II, and subject to the experiment for topical application of DHEA. A portion of knee joint showing dolor symptom was coated with either 5% DHEA or PBS (phosphate buffered saline) twice a day for 1 month. Any alteration of symptom was checked prior to the application, 1 week and then again 1 month during the application regimen.
The severity of pain was scored ranging from 0 (most severe pain) to 20 points (no pain) at an interval of 5 points.
In addition, both joint effusion and medial joint-line tenderness were recorded during a physical test administered by a doctor based on the point rating scale: highness, 4; medium, 3; slightness, 2; and not found, 0.
The opinions on symptom were recorded as 5 categories relying on the subjective opinions of patients and the opinions of doctors regarding both dolor of patients and the results of physical tests: superiority, goodness, mediocrity, poorness and exceeding poorness.
In addition, the assessment regarding the level of improvement on symptoms was recorded in accordance with the following criteria: 3-step improvement, “exceeding improvement”; 2-step improvement, “improvement”; 1-step improvement, “slight improvement”; “no change”; and “aggravation”.

[4] = Group I (5 patients), 1 month after application
[5] = Group I, topical, 1 month after application
[6] = Group I, topical, 1 week after application
[7] = Group I, topical, 1 week and 1 month vs before application

With `C[C@]12CC[C@H](O)CC1=CC[C@@H]1[C@@H]2CC[C@]2(C)C(=O)CC[C@@H]12` [DHEA, dehyroepiandrosterone] the “MMP-1 level, inhibition” value (MMP-1 mRNA; 72 hours) was 48%, the “MMP-1 mRNA level, reduced by” value (MMP-1 mRNA; after 24 hr) was 43% and the “MMP-1 mRNA level, reduced by” value (MMP-1 mRNA; after 48 hr) was 35%. For the same compound, the “MMP-1 mRNA expression” value (MMP-1 mRNA; after 72 hr) was “markly inhibited”, the “(IL-1β)-induced up-regulation of MMP-1 mRNA, inhibition” value ([1]; 10 μM DHEA with IL-1β) was 74% and the “(IL-1β)-induced up-regulation of MMP-1 mRNA, inhibition” value ([1]; 50 μM DHEA with IL-1β) was 53%. For the same compound, the “(IL-1β)-induced IL-6 gene expression” value [2] was “no significantly change”, the “expression of MMP-3” value (MMP-3 expression) was “did not change” and the “opinion of doctor: no change” value [3, 4] was 4 persons. For the same compound, the “opinion of doctor: slight improvement” value [3, 4] was 1 person, the “opinion of patient: aggravation” value [3, 4] was 1 person and the “opinion of patient: no change” value [3, 4] was 3 persons. For the same compound, the “opinion of patient: slight improvement” value [3, 4] was 1 person, the resting pain score ([3]; Group I, topical 5% DHEA twice a day, 1 week after application) was 15.29 points and the joint effusion score [3, 5] was 2.27 points. The “medial joint line tenderness score” value [3, 5] was 2.54 points, the motion pain score [3, 5] was 8.51 points and the “pain at ascending/descending stairs score” value [3, 5] was 10.49 points. For the same compound, the resting pain score [3, 5] was 15.02 points, the joint effusion score [3, 6] was 1.98 points and the “medial joint line tenderness score” value [3, 6] was 2.11 points. For the same compound, the motion pain score [3, 6] was 8.34 points, the “pain at ascending/descending stairs score” value [3, 6] was 10.11 points and the “change of joint effusion” value [3, 7] was “not a significant change”. The “change of medial joint line tenderness” value [3, 7] was “not a significant change”, the “change of motion pain” value [3, 7] was “not a significant change” and the “change of pain at ascending/descending stairs” value [3, 7] was “not a significant change”. The “change of resting pain” value [3, 7] was “not a significant change”.
